Source: patent publication US10160747B2, “Compounds and methods for kinase modulation, and indications therefor” (Plexxikon Inc., priority 2016, dated 2018)

What was measured:
Assay type in all cases: biochemical
FLT3-ITD = biological target: T1, FLT3-ITD (Homo sapiens, UniProt P36888); experiment: FLT3-ITD recombinant enzyme kinase assay (AlphaScreen); settings: 8 pt; read-out: FLT3_ITD 8 pt: IC50
T1 sequence (P36888 1-993): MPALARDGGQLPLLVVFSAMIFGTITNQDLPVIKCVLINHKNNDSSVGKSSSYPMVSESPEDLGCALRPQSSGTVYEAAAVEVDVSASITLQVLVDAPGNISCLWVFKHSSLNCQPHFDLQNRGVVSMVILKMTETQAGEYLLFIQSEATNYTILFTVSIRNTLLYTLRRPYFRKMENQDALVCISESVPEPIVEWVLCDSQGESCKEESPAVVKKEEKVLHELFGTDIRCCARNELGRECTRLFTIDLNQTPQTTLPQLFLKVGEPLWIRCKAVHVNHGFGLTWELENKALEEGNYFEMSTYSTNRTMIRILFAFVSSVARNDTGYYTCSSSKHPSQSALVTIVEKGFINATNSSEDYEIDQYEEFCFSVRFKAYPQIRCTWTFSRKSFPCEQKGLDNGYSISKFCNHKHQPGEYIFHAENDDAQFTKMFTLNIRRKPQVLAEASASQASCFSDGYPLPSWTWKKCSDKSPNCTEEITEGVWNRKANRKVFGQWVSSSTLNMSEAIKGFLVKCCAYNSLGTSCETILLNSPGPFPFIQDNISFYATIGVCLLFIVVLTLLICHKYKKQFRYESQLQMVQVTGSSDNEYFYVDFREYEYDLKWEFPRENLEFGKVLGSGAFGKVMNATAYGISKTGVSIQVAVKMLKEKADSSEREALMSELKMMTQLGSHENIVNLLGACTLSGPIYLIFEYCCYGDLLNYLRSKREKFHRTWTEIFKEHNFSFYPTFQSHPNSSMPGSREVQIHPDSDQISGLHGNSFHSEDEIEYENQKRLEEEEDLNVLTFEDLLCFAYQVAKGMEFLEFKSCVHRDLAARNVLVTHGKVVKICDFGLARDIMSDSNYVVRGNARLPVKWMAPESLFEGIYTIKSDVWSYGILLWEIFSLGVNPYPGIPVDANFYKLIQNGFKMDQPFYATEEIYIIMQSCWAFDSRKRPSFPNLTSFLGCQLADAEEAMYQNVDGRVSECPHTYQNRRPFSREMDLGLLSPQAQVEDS
Procedure, shortened: (§1)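 IC50 values come from AlphaScreen proximity signal: phosphorylated biotin-poly(Glu4-Tyr) (30 nM) bridges streptavidin donor and anti-phosphotyrosine PY20 acceptor beads. Enzyme reactions ran at 100 μM ATP for c-KIT versus 10 μM for both FLT3 mutants (ITD, D835Y); beads added in stop buffer, room temperature.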

CSF1R = CSF1R (Homo sapiens, UniProt P07333); experiment: CSF1R 100 ATP 8 pt kinase assay (Table 6)
Description: The following Table 6 provides data indicating FLT3 ITD, D835Y and F691L; c-KIT and CSF1R biochemical and/or cell inhibitory activity for exemplary compounds as described herein.

c-KIT = biological target: T2, c-KIT (Homo sapiens, UniProt P10721); experiment: c-KIT recombinant enzyme kinase assay (AlphaScreen); settings: 100 ATP, 8 pt
T2 construct: purchased Millipore 14-559K
Procedure, shortened: as §1

T2 sequence (P10721 26-976): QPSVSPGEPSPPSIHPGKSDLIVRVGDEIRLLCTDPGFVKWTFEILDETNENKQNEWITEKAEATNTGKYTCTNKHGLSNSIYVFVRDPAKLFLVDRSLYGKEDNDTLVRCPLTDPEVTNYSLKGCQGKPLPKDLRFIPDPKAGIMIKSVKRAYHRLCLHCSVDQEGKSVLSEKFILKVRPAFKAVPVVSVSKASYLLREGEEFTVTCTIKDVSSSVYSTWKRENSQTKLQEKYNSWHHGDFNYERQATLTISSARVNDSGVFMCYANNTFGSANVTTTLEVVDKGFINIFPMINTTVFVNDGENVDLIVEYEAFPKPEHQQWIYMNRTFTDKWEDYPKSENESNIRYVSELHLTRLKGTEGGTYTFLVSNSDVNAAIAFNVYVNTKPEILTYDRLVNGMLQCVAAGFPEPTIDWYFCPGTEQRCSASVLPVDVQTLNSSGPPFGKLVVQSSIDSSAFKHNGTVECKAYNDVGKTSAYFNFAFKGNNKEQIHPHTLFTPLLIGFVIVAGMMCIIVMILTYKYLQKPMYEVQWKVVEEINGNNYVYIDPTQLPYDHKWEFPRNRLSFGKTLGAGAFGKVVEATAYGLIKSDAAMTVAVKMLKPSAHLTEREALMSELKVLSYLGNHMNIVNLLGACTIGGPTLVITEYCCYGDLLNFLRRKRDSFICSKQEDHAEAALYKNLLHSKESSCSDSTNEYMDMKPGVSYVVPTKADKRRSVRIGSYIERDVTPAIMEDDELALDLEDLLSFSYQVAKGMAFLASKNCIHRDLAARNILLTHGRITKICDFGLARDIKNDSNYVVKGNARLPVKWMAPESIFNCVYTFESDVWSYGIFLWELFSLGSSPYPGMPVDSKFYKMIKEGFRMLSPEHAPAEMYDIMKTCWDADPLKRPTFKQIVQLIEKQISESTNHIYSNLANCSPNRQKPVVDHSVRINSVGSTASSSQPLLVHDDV
CSF1R, sequence (P07333 20-972, species assumed): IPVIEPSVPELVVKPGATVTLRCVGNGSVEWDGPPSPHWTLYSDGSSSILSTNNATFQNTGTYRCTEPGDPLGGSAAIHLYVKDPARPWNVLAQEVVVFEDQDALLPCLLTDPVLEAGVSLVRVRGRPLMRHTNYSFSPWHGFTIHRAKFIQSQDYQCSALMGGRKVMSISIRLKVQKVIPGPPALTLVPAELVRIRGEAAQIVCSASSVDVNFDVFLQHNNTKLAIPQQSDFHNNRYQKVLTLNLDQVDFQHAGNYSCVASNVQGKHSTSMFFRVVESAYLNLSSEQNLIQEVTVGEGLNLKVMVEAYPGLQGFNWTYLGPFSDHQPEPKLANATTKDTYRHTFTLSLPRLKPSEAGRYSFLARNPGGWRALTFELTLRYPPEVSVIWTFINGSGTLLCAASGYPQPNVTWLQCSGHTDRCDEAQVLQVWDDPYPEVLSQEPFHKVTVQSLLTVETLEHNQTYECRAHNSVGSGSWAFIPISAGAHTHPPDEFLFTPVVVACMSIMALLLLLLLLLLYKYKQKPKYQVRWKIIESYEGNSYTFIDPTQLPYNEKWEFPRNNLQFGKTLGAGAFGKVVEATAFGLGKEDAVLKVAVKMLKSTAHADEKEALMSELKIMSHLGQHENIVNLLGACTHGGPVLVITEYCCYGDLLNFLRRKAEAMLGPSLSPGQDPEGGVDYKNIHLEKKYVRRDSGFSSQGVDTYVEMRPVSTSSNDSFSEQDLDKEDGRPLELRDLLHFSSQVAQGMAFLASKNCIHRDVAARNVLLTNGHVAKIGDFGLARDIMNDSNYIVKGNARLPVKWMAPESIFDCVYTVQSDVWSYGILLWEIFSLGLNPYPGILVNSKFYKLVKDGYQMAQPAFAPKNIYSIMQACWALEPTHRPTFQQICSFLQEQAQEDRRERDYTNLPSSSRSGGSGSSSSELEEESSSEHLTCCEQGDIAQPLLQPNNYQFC

Row | IC50 (FLT3-ITD) | IC50 (CSF1R) | IC50 (c-KIT) | Compound
1 | 0.0001 to 10 µM | 0.0001 to 10 µM | 0.0001 to 10 µM | Cc1n[nH]c2ncc(-c3ccc(CC(=O)Nc4cncc(C(F)(F)F)c4)cc3F)cc12 [Compound P-0177, 2-[3-fluoro-4-(3-methyl-1H-pyrazolo[3,4-b]pyridin-5-yl)phenyl]-N-[5-(trifluoromethyl)-3-pyridyl]acetamide]
2 | 0.0001 to 10 µM | 0.0001 to 10 µM | 0.0001 to 10 µM | COc1ncc(NC(=O)Cc2ccc(-c3cnc4[nH]nc(C)c4c3)c(F)c2)cc1C(F)(F)F [Compound P-0174, 2-[3-fluoro-4-(3-methyl-1H-pyrazolo[3,4-b]pyridin-5-yl)phenyl]-N-[6-methoxy-5-(trifluoromethyl)-3-pyridyl]acetamide]
3 | 0.0001 to 10 µM | 0.0001 to 10 µM | 0.0001 to 10 µM | Cc1ncc(NC(=O)Cc2cc(F)c(-c3cnc4[nH]nc(C)c4c3)cc2F)cc1C(F)(F)F [Compound P-0175, 2-(2,5-difluoro-4-(3-methyl-1H-pyrazolo[3,4-b]pyridin-5-yl)phenyl)-N-(6-methyl-5-(trifluoromethyl)pyridin-3-yl)acetamide]
4 | 0.0001 to 10 µM |  | 0.0001 to 10 µM | COc1ccccc1CNC(=O)Cc1ccc(-c2cnc(Nc3cnn(C)c3)nc2)cc1 [Compound P-0160, N-[(2-methoxyphenyl)methyl]-2-[4-[2-[(1-methylpyrazol-4-yl)amino]pyrimidin-5-yl]phenyl]acetamide]
5 | 0.0001 to 10 µM |  | 0.0001 to 10 µM | Cn1cc(Nc2ncc(-c3ccc(CC(=O)NCc4ncccc4C(F)(F)F)cc3)cn2)cn1 [Compound P-0159, 2-[4-[2-[(1-methylpyrazol-4-yl)amino]pyrimidin-5-yl]phenyl]-N-[[3-(trifluoromethyl)-2-pyridyl]methyl]acetamide]
6 | 0.0001 to 10 µM |  | 0.0001 to 10 µM | O=C(Cc1ccc(-c2cnc3[nH]c(-c4ccnc(N5CCOCC5)c4)cc3c2)cn1)Nc1ccnc(C(F)(F)F)c1 [Compound P-0181, 2-[5-[2-(2-morpholino-4-pyridyl)-1H-pyrrolo[2,3-b]pyridin-5-yl]-2-pyridyl]-N-[2-(trifluoromethyl)-4-pyridyl]acetamide]
7 | 0.0001 to 10 µM |  | 0.0001 to 10 µM | Cn1cc(Nc2ncc(-c3ccc(CC(=O)Nc4cccc(OC(F)(F)F)c4)cc3)cn2)cn1 [Compound P-0157, 2-[4-[2-[(1-methylpyrazol-4-yl)amino]pyrimidin-5-yl]phenyl]-N-[3-(trifluoromethoxy)phenyl]acetamide]
8 | 0.0001 to 10 µM | 0.0001 to 10 µM | 0.0001 to 10 µM | Cc1n[nH]c2ncc(-c3cc(F)c(CC(=O)Nc4cncc(C(F)(F)F)c4)cc3F)cc12 [Compound P-0173, 2-[2,5-difluoro-4-(3-methyl-1H-pyrazolo[3,4-b]pyridin-5-yl)phenyl]-N-[5-(trifluoromethyl)-3-pyridyl]acetamide]

The next lines start with the molecule.

Row | Compound | IC50 (FLT3-ITD) | IC50 (CSF1R) | IC50 (c-KIT)
9 | Cc1ncc(NC(=O)Cc2ccc(-c3cnc(Nc4cnn(C)c4)nc3)cc2)cc1C(F)(F)F [Compound P-0140, 2-[4-[2-[(1-methylpyrazol-4-yl)amino]pyrimidin-5-yl]phenyl]-N-[6-methyl-5-(trifluoromethyl)-3-pyridyl]acetamide] | 0.0001 to 10 µM |  | 0.0001 to 10 µM
10 | COc1cncc(NC(=O)Cc2ccc(-c3cnc(Nc4cnn(C)c4)nc3)cc2)c1 [Compound P-0133, N-(5-methoxy-3-pyridyl)-2-[4-[2-[(1-methylpyrazol-4-yl)amino]pyrimidin-5-yl]phenyl]acetamide] | 0.0001 to 10 µM |  | 0.0001 to 10 µM
11 | Cn1cc(Nc2ncc(-c3ccc(CC(=O)Nc4cccc(C(F)(F)F)c4)cc3)cn2)cn1 [Compound P-0141, 2-[4-[2-[(1-methylpyrazol-4-yl)amino]pyrimidin-5-yl]phenyl]-N-[3-(trifluoromethyl)phenyl]acetamide] | 0.0001 to 10 µM |  | 0.0001 to 10 µM
12 | Cn1cc(Nc2ncc(-c3ccc(CC(=O)Nc4ccc(C(F)(F)F)c(F)c4)cc3)cn2)cn1 [Compound P-0142, N-[3-fluoro-4-(trifluoromethyl)phenyl]-2-[4-[2-[(1-methylpyrazol-4-yl)amino]pyrimidin-5-yl]phenyl]acetamide] | 0.0001 to 10 µM |  | 0.0001 to 10 µM
13 | Cn1cc(Nc2ncc(-c3ccc(CC(=O)Nc4cc(C(F)(F)F)ccn4)cc3)cn2)cn1 [Compound P-0139, 2-[4-[2-[(1-methylpyrazol-4-yl)amino]pyrimidin-5-yl]phenyl]-N-[4-(trifluoromethyl)-2-pyridyl]acetamide] | 0.0001 to 10 µM |  | 0.0001 to 10 µM
14 | CC(C)c1cc(NC(=O)Cc2ccc(-c3cnc(Nc4cnn(C)c4)nc3)cc2F)ccn1 [Compound P-0094, 2-[2-fluoro-4-[2-[(1-methylpyrazol-4-yl)amino]pyrimidin-5-yl]phenyl]-N-(2-isopropyl-4-pyridyl)acetamide] | 0.0001 to 10 µM |  | 0.0001 to 10 µM
